Experimental data reported in patent US11884647B2, “Compounds and methods for targeting pathogenic blood vessels” (THE REGENTS OF THE UNIVERSITY OF CALIFORNIA, priority 2019, dated 2024).

Test system: tumor endothelial cells (LL/2 lung cancer tumor)
Assay: Lung LL2 ex vivo model of tumor angiogenesis
Format: cell-based, mouse
Settings: for cytotoxicity at 20 µM / cytotoxicity at 40 µM / cytotoxicity at 10 µM: Mus musculus, Endothelial cell, 48 h, read-out: Cell death; for Cell death: drug treatment two days
Description: This example describes a procedure to prepare a primary tumor angiogenesis model for assessing the efficacy of anti-cancer candidate agents.
1. The day before the experiment, spray all necessary tools with 70% ethanol and sterilize them under UV light overnight, including blade, dissecting and micro-dissecting scissors and […]. Place 24-well dishes at 4° C. to pre-chill plates and thaw Matrigel 24 hours before tumor dissection.
2. Spray 70% ethanol on working bench. Prepare two sterile petri dishes with 10 mL sterile PBS. Steps 3 and 4 are for mouse tumor models. For fresh human tumor, directly go to step 5.
3. Euthanize the tumor-bearing mice. Spray 70% ethanol on the mouse and remove the tumor using sterilized dissecting tools (avoid the fur). Rinse the tumor in petri dish with sterile PBS to remove ethanol and fur. Transfer the tumor to a new petri dish with PBS for dissection. Place the dish on ice.
4. Using pre-chilled sterile pipet tips to seed regular Matrigel in 24 well plates on ice. Matrigel (30 μL) is dropped in the middle of each well without touching the edge of the well (avoid introducing bubbles if possible).
5. Cut the tumor in halves using the sterile blade. Identify and isolate healthy tumor tissue that is not necrotic and is within the tumor capsule. Cut the healthy tumor tissue into small pieces. For instance, a suitable size for the tumor tissue is 0.5 mm (H)×0.5 mm (L)×0.3 mm (D) with a total volume of 0.075 mm^3.
6. Gently transfer and embed each tumor piece in the Matrigel drop in the 24-well plate. Place the embedded piece in the bottom and middle of each Matrigel drop. Keep the plate on ice all the time.
7. After seeding the tumor pieces, plates are incubated in a 37° C. cell culture incubator without medium for 10 minutes in order for the Matrigel to solidify.
8. Endothelial Growth Medium (0.5 mL) is added to each well and incubated at 37° C. with 5% CO2. Wait until the new endothelial cells have grown out of the tumor or are larger than 3 mm in diameter until treatment. This usually takes 4 days for the LL2 Lewis lung cancer model and 7 days for the CT26 colon cancer model. For human tumor models, the growth time is typically 2-3 weeks, depending on the tumor type. Media is changed every 4 days during prolonged culture. Typically, when the tumor tissue grows to 2 mm in diameter, it is good for drug testing. A size of about 3 mm in diameter can make visualization easier.
9. When the assay is ready to be analyzed for cell death (e.g., 48 hours after drug addition), prepare the dye mixture by mixing 6 μL of green dye to stain live cells (5 mg/mL Fluorescein diacetate or FDA in DMSO) with 30 μL of red dye (2.5 mg/mL Propidium iodide or PI in PBS) to stain dead cells in an Eppendorf tube. The FDA dye needs to be stored frozen in a −20° C. freezer because it has a labile ester bond.
10. Add 1 μL of the dye mixture to each well of the 24-well dish. It is usually performed one 24-well dish at a time given the amount of time needed to take pictures (the green dye is not as stable in the cells in the long term).
11. Gently rock the dish a few times to mix the dye with the media in the wells and incubate the dish at 37° C. for 10 min (too long incubation can make the green signal too intense).
12. Wash each well with 0.5 mL of sterile PBS and then add 0.5 mL of phenol red free SFM to each well. Alternatively 0.5 mL of regular Endothelial Cell Growth Media can be added to each well if this well needs to be continuously maintained after the experiment.
13. Look through all wells on an inverted microscope using the 2× objective lens to observe morphological changes.
14. Taking pictures in the red and green channels would allow not only the recording of the result but also more accurate quantitation of the result. To take pictures for all the wells, first pick a well that has robust red and green signals. […]

Q: For CCCCCCCOc1ccc(S(=O)(=O)c2cnc3ccc(SC)cc3c2N2CCC(N3CCC(N4CCCCC4)CC3)CC2)cc1 [compound 251, 4-([1,4′:1′,4″-terpiperidin]-1″-yl)-3-((4-(heptyloxy)phenyl)sulfonyl)-6-(methylthio)quinoline], which cytotoxicity at 20 µM is on record?
A: Its cytotoxicity at 20 µM is 60%.

Q: With CCN(CC)CCOc1ccc(S(=O)(=O)c2cnc3ccc(SC)cc3c2N2CCCN(C)CC2)cc1 [compound 242, N,N-diethyl-2-(4-((4-(4-methyl-1,4-diazepan-1-yl)-6-(methylthio)quinolin-3-yl)sulfonyl)phenoxy)ethan-1-amine] as the compound, how does the cytotoxicity at 40 µM read?
A: Its cytotoxicity at 40 µM is 30%.

Q: Which cytotoxicity at 40 µM does the source give for COc1ccc(N2CCN(c3c(S(=O)(=O)c4ccc(OC)cc4)cnc4cc(OC)c(OC)cc34)CC2=O)cc1 [compound 318] here?
A: Its cytotoxicity at 40 µM is 30%.

Q: For COc1ccc(S(=O)(=O)c2cnc3cc(OC)c(OC)cc3c2N2CCCN(C3CCS(=O)(=O)CC3)CC2)cc1 [compound 330, 4-(4-(6,7-dimethoxy-3-((4-methoxyphenyl)sulfonyl)quinolin-4-yl)-1,4-diazepan-1-yl)tetrahydro-2H-thiopyran 1,1-dioxide], which cytotoxicity at 40 µM is on record?
A: Its cytotoxicity at 40 µM is 50%.

Q: With CCCCCCCCCCCCCCOc1ccc(S(=O)(=O)c2cnc3ccc([S+](C)[O-])cc3c2N2CCC(N3CCC(N4CCC(O)CC4)CC3)CC2)cc1 (centres unmarked) [compound 375, 1″-(6-(methylsulfinyl)-3-((4-(tetradecyloxy)phenyl)sulfonyl)quinolin-4-yl)-[1,4′:1′,4″-terpiperidin]-4-ol] as the compound, how does the cytotoxicity at 20 µM read?
A: The cytotoxicity at 20 µM was 50%.

Q: Which results are given for “4-([1,4′:1′,4″-terpiperidin]-1″-yl)-6- (methyl(λ^1-oxidanyl)-λ^3-sulfanyl)-3-((4- (tetradecyloxy)phenyl)sulfonyl)quinoline [compound 347]”?
A: 48 hrs (morphology observations after 48 hours) (Lung LL2 ex vivo, Conc. 20 μm, 48 hrs): *** (100% of endothelial cells vesicularize in cell shape); Cell death (Lung LL2 ex vivo, Conc. 20 μm): 30%

Q: CCCCOc1ccc(S(=O)(=O)c2cnc3ccc(S(C)(=O)=O)cc3c2N2CCC(N3CCCCC3)CC2)cc1 [compound 169, 4-([1,4′-bipiperidin]-1′-yl)-3-((4-butoxyphenyl)sulfonyl)-6-(methylsulfonyl)quinoline] was tested. Which cytotoxicity at 20 µM did it give?
A: The cytotoxicity at 20 µM was 40%.

Q: How did the cytotoxicity at 20 µM turn out when CCCCCCCCCCCCCCOc1ccc(S(=O)(=O)c2cnc3ccc([S+](C)[O-])cc3c2N2CCC(N3CCC(N4CCN(C)CC4)CC3)CC2)cc1F (centres unmarked) [compound 371, 3-((3-fluoro-4-(tetradecyloxy)phenyl)sulfonyl)-4-(4-(4-methylpiperazin-1-yl)-[1,4′-bipiperidin]-1′-yl)-6-(methylsulfinyl)quinoline] was run?
A: The cytotoxicity at 20 µM was 30%.

Q: How did the Cell death (Lung LL2 ex vivo, Conc. 40 μm) turn out when CCCCOc1ccc(S(=O)(=O)c2cnc3ccc(C(=O)OCC)cc3c2N2CCN(c3ccc(F)cc3)CC2)cc1 [compound 213, ethyl 3-((4-butoxyphenyl)sulfonyl)-4-(4-(4-fluorophenyl)piperazin-1-yl)quinoline-6-carboxylate] was run?
A: The Cell death was 30%.

Q: With CCCCCCCCCCOc1ccc(S(=O)(=O)c2cnc3ccc([S+](C)[O-])cc3c2N2CCC(N3CCN(C)CC3)CC2)cc1 (centres unmarked) [compound 264, 3-((4-(decyloxy)phenyl)sulfonyl)-4-(4-(4-methylpiperazin-1-yl)piperidin-1-yl)-6-(methylsulfinyl)quinoline] as the compound, how does the cytotoxicity at 10 µM read?
A: Its cytotoxicity at 10 µM is 20%.

Q: CCCCOc1ccc(S(=O)(=O)c2cnc3ccc(SC)cc3c2N2CCC(N3CCCC3CO)CC2)cc1 (centres unmarked) [compound 350, (1-(1-(3-((4-butoxyphenyl)sulfonyl)-6-(methylthio)quinolin-4-yl)piperidin-4-yl)pyrrolidin-2-yl)methanol] was tested. Which Cell death (Lung LL2 ex vivo, Conc. 40 μm) did it give?
A: The Cell death was 20%.

Q: With CCCCCCCOc1ccc(S(=O)(=O)c2cnc3ccc(SC)cc3c2N2CCCN(CCN3CCCCC3)CC2)cc1 [compound 248, 3-((4-(heptyloxy)phenyl)sulfonyl)-6-(methylthio)-4-(4-(2-(piperidin-1-yl)ethyl)-1,4-diazepan-1-yl)quinoline] as the compound, how does the cytotoxicity at 20 µM read?
A: Its cytotoxicity at 20 µM is 60%.

Q: CCCCCCCOc1ccc(S(=O)(=O)c2cnc3ccc(SC)cc3c2N2CCN(CCN3CCCCC3)CC2)cc1 [compound 281, 3-((4-(heptyloxy)phenyl)sulfonyl)-6-(methylthio)-4-(4-(2-(piperidin-1-yl)ethyl)piperazin-1-yl)quinoline] was tested. Which cytotoxicity at 20 µM did it give?
A: Its cytotoxicity at 20 µM is 50%.

Q: With CCc1ccc(S(=O)(=O)c2cnc3ccc(OC)cc3c2NN2CCN(C)CC2)cc1 [compound 83, 3-((4-ethylphenyl)sulfonyl)-6-methoxy-N-(4-methylpiperazin-1-yl)quinolin-4-amine] as the compound, how does the Cell death (Lung LL2 ex vivo, Conc. 40 μm) read?
A: The Cell death was 20%.

Q: With CCOC(=O)c1ccc2ncc(S(=O)(=O)c3ccc(OC)cc3)c(N3CCCN(CCN4CCCCC4)CC3)c2c1 [compound 179, ethyl 3-((4-methoxyphenyl)sulfonyl)-4-(4-(2-(piperidin-1-yl)ethyl)-1,4-diazepan-1-yl)quinoline-6-carboxylate] as the compound, how does the cytotoxicity at 10 µM read?
A: The cytotoxicity at 10 µM was 60%.

Q: For CCCCCCCOc1ccc(S(=O)(=O)c2cnc3ccc(SC)cc3c2N2CCN(C3CCN(Cc4ccccc4)C3)CC2)cc1 (centres unmarked) [compound 274, 4-(4-(1-benzylpyrrolidin-3-yl)piperazin-1-yl)-3-((4-(heptyloxy)phenyl)sulfonyl)-6-(methylthio)quinoline], which cytotoxicity at 20 µM is on record?
A: Its cytotoxicity at 20 µM is 10%.

Q: For CCCCOc1ccc(S(=O)(=O)c2cnc3ccc(SC)cc3c2N2CCCN(C3CCS(=O)(=O)CC3)CC2)cc1 [compound 359, 4-(4-(3-((4-butoxyphenyl)sulfonyl)-6-(methylthio)quinolin-4-yl)-1,4-diazepan-1-yl)tetrahydro-2H-thiopyran 1,1-dioxide], which Cell death (Lung LL2 ex vivo, Conc. 40 μm) is on record?
A: Its Cell death is 20%.

Q: With COc1ccc(C2CCN(c3c(S(=O)(=O)c4ccc(OC)cc4)cnc4cc(OC)c(OC)cc34)CC2)cc1 [compound 311, 6,7-dimethoxy-4-(4-(4-methoxyphenyl)piperidin-1-yl)-3-((4-methoxyphenyl)sulfonyl)quinoline] as the compound, how does the cytotoxicity at 40 µM read?
A: The cytotoxicity at 40 µM was 30%.

Q: For CCc1ccc(S(=O)(=O)c2cnc3ccc(OC(F)(F)F)cc3c2Nc2ccncc2)cc1 [compound 107, 3-((4-ethylphenyl)sulfonyl)-N-(pyridin-4-yl)-6-(trifluoromethoxy)quinolin-4-amine], which cytotoxicity at 20 µM is on record?
A: The cytotoxicity at 20 µM was 0%.

Q: With COc1ccc(S(=O)(=O)c2cnc3ccc(OC(F)(F)F)cc3c2N2CCC(N3CCC(O)CC3)CC2)cc1 [compound 113, 1′-(3-((4-methoxyphenyl)sulfonyl)-6-(trifluoromethoxy)quinolin-4-yl)-[1,4′-bipiperidin]-4-ol] as the compound, how does the Cell death (Lung LL2 ex vivo, Conc. 20 μm) read?
A: The Cell death was 10%.

Q: Which cytotoxicity at 40 µM does the source give for CCCCOc1ccc(S(=O)(=O)c2cnc3ccc(C(=O)OCC)cc3c2N2CCC(N3CCN(C)CC3)CC2)cc1 [compound 172, ethyl 3-((4-butoxyphenyl)sulfonyl)-4-(4-(4-methylpiperazin-1-yl)piperidin-1-yl)quinoline-6-carboxylate] here?
A: Its cytotoxicity at 40 µM is 100%.

Q: How did the cytotoxicity at 20 µM turn out when CCCCCCCCCCCCCCOc1ccc(S(=O)(=O)c2cnc3ccc([S+](C)[O-])cc3c2N2CCC(N3CCN(CCO)CC3)CC2)cc1 (centres unmarked) [compound 344, 2-(4-(1-(6-(methylsulfinyl)-3-((4-(tetradecyloxy)phenyl)sulfonyl)quinolin-4-yl)piperidin-4-yl)piperazin-1-yl)ethan-1-ol] was run?
A: The cytotoxicity at 20 µM was 10%.

Q: How did the cytotoxicity at 20 µM turn out when CCCCCCCCCCCCCCCCOc1ccc(S(=O)(=O)c2cnc3ccc([S+](C)[O-])cc3c2N2CCC(N3CCN(CCO)CC3)CC2)cc1 (centres unmarked) [compound 376, 2-(4-(1-(3-((4-(hexadecyloxy)phenyl)sulfonyl)-6-(methylsulfinyl)quinolin-4-yl)piperidin-4-yl)piperazin-1-yl)ethanol] was run?
A: The cytotoxicity at 20 µM was 10%.

Q: With CCCCOc1ccc(S(=O)(=O)c2cnc3ccc([S+](C)[O-])cc3c2N2CCC(N3CCN(CCO)CC3)CC2)cc1 (centres unmarked) [compound 236, 2-(4-(1-(3-((4-butoxyphenyl)sulfonyl)-6-(methylsulfinyl)quinolin-4-yl)piperidin-4-yl)piperazin-1-yl)ethan-1-ol] as the compound, how does the cytotoxicity at 40 µM read?
A: The cytotoxicity at 40 µM was 5%.

Q: With CCCCOc1ccc(S(=O)(=O)c2cnc3ccc(SC)cc3c2N2CCC(N3CCOCC3)CC2)cc1 [compound 229, 4-(1-(3-((4-butoxyphenyl)sulfonyl)-6-(methylthio)quinolin-4-yl)piperidin-4-yl)morpholine] as the compound, how does the cytotoxicity at 40 µM read?
A: Its cytotoxicity at 40 µM is 30%.
